Test system: 3D7-MR4 trophozoite parasite-infected RBCs
Experiment: Metabolomic profiling (hydrophilic metabolite changes, UHPLC-MS)
Assay type: cell-based, Plasmodium falciparum

Which results are given for `CC(C)(C)c1ccc2c(c1)CN(Cc1ccc(Cl)cc1)CO2` [MMV000442]?
peptide levels (hemoglobin catabolism signature) (10 × IC50^72h, 2.5 hr, trophozoites): decreased peptide levels; Log2(fold changes) 1_3-Bisphosphoglyceric acid (metabolite 1_3-Bisphosphoglyceric acid, log2 fold change): 0.0000; Log2(fold changes) 2-Hydroxy-2-methylbutanedioic acid (metabolite 2-Hydroxy-2-methylbutanedioic acid, log2 fold change): 0.0000; Log2(fold changes) 2-Isopropylmalic acid (metabolite 2-Isopropylmalic acid, log2 fold change): 0.0000; Log2(fold changes) 2-dehydro-D-gluconate (metabolite 2-dehydro-D-gluconate, log2 fold change): 0.0187; Log2(fold changes) 2-oxo-4-methylthiobutanoate (metabolite 2-oxo-4-methylthiobutanoate, log2 fold change): 0.0000; Log2(fold changes) 2_3-Diphosphoglyceric acid (metabolite 2_3-Diphosphoglyceric acid, log2 fold change): 0.0000; Log2(fold changes) 3-phosphoglycerate (metabolite 3-phosphoglycerate, log2 fold change): 0.1472; Log2(fold changes) 3-phosphoserine (metabolite 3-phosphoserine, log2 fold change): -0.0388; Log2(fold changes) 4-Pyridoxic acid (metabolite 4-Pyridoxic acid, log2 fold change): 0.3454; Log2(fold changes) 4-aminobutyrate (metabolite 4-aminobutyrate, log2 fold change): -0.2887; Log2(fold changes) 4-phosphopantetheine (metabolite 4-phosphopantetheine, log2 fold change): 0.0000; Log2(fold changes) 4-phosphopantothenate (metabolite 4-phosphopantothenate, log2 fold change): -0.1668; Log2(fold changes) 5-aminopentanoic acid (metabolite 5-aminopentanoic acid, log2 fold change): -0.5922; Log2(fold changes) 5-methyl-THF (metabolite 5-methyl-THF, log2 fold change): 0.0000; Log2(fold changes) 5-phosphoribosyl-1-pyrophosphate (metabolite 5-phosphoribosyl-1-pyrophosphate, log2 fold change): 0.0000; Log2(fold changes) 6-phospho-D-gluconate (metabolite 6-phospho-D-gluconate, log2 fold change): -0.0694; Log2(fold changes) ADP-D-glucose (metabolite ADP-D-glucose, log2 fold change): 0.0000; Log2(fold changes) Acetyl-glycine (metabolite Acetyl-glycine, log2 fold change): 0.0000; Log2(fold changes) Acetyllysine (metabolite Acetyllysine, log2 fold change): -2.4239; Log2(fold changes) Aminoadipic acid (metabolite Aminoadipic acid, log2 fold change): 0.6779; Log2(fold changes) CDP (metabolite CDP, log2 fold change): -0.1566; Log2(fold changes) CDP-choline (metabolite CDP-choline, log2 fold change): 0.0000; Log2(fold changes) CDP-ethanolamine (metabolite CDP-ethanolamine, log2 fold change): 0.0000; Log2(fold change) of CMP (metabolite CMP): -0.4256; Log2(fold change) of CTP (metabolite CTP): 0.0000; Log2(fold changes) Citraconic acid (metabolite Citraconic acid, log2 fold change): 0.0000; Log2(fold change) of D-glucarate (metabolite D-glucarate): 0.0000; Log2(fold change) of D-gluconate (metabolite D-gluconate): 0.0000; Log2(fold change) of D-glucosamine-1/6-phosphate (metabolite D-glucosamine-1/6-phosphate): 0.0000; Log2(fold change) of D-sedoheptulose-1/7-phosphate (metabolite D-sedoheptulose-1/7-phosphate): 0.0894; Log2(fold change) of DL-Pipecolic Acid (metabolite DL-Pipecolic Acid): -2.3554; Log2(fold change) of DLH (metabolite DLH): -3.0002; Log2(fold change) of DLS (metabolite DLS): 0.0000; Log2(fold change) of Decanoyl-CoA (metabolite Decanoyl-CoA): 0.0000; Log2(fold change) of EV (metabolite EV): 0.0000; Log2(fold change) of FAD (metabolite FAD): 0.0825; Log2(fold change) of FMN (metabolite FMN): 0.2444; Log2(fold change) of G3P/DHAP (metabolite G3P/DHAP): 0.3715; Log2(fold change) of GDP (metabolite GDP): -0.4064; Log2(fold change) GMP (metabolite GMP): -0.5023; Log2(fold change) GTP (metabolite GTP): 0.0000; Log2(fold change) HVDD (metabolite HVDD): 0.0000; Log2(fold change) Hexose (metabolite Hexose): 0.5242; Log2(fold change) Hydroxyisocaproic acid (metabolite Hydroxyisocaproic acid): 0.0000; Log2(fold change) IDP (metabolite IDP): 0.0000; Log2(fold change) IMP (metabolite IMP): -0.3808; Log2(fold change) Inositol (metabolite Inositol): 0.0000; Log2(fold change) Isopentyl-PP (metabolite Isopentyl-PP): 0.0000; Log2(fold change) L-arginino-succinate (metabolite L-arginino-succinate): -0.9153; Log2(fold change) LD (metabolite LD): 0.0782; Log2(fold change) Myristoyl/tetradecanoyl-CoA (metabolite Myristoyl/tetradecanoyl-CoA): 0.0000; Log2(fold change) N-Acetyl-L-alanine (metabolite N-Acetyl-L-alanine): -0.8745; Log2(fold change) N-acetyl-L-ornithine (metabolite N-acetyl-L-ornithine): -2.0207; Log2(fold change) N-acetyl-glucosamine-1/6-phosphate (metabolite N-acetyl-glucosamine-1/6-phosphate): 0.0000; Log2(fold change) N-acetyl-glutamate (metabolite N-acetyl-glutamate): 0.2896; Log2(fold change) N-acetyl-glutamine (metabolite N-acetyl-glutamine): -0.5645; Log2(fold change) N-carbamoyl-L-aspartate (metabolite N-carbamoyl-L-aspartate): -1.7487; Log2(fold change) NAD+ (metabolite NAD+): -0.0829; Log2(fold change) NADH (metabolite NADH): 0.7233; Log2(fold change) NADP+ (metabolite NADP+): 0.2722; Log2(fold change) NADPH (metabolite NADPH): 0.0000; Log2(fold change) O-acetyl-L-serine (metabolite O-acetyl-L-serine): 0.0000; Log2(fold change) Octoluse 8/1P (metabolite Octoluse 8/1P): 0.0000; Log2(fold change) Octoluse Bisphosphate (metabolite Octoluse Bisphosphate): -0.1456; Log2(fold change) PD (metabolite PD): -3.3951; Log2(fold change) PE (metabolite PE): -2.6495; Log2(fold change) PEE (metabolite PEE): -3.0239; Log2(fold change) PEEK (metabolite PEEK): -4.4264; Log2(fold change) PVNF (metabolite PVNF): -3.4246; Log2(fold change) Pyroglutamic acid (metabolite Pyroglutamic acid): -0.3004; Log2(fold change) Pyrophosphate (metabolite Pyrophosphate): 0.0000; Log2(fold change) Ribose-5-phosphate (metabolite Ribose-5-phosphate): -0.0687; Log2(fold change) S-adenosyl-L-homocysteine (metabolite S-adenosyl-L-homocysteine): -0.3299; Log2(fold change) S-adenosyl-L-methioninamine (metabolite S-adenosyl-L-methioninamine): 0.0000; Log2(fold change) S-adenosyl-L-methionine (metabolite S-adenosyl-L-methionine): 0.0000; Log2(fold change) S-methyl-5'-thioadenosine (metabolite S-methyl-5'-thioadenosine): 0.0000; Log2(fold change) SD (metabolite SD): 0.0000; Log2(fold change) SDL (metabolite SDL): 0.0000; Log2(fold change) SID (metabolite SID): 0.0000; Log2(fold change) Sedoheptulose bisphosphate (metabolite Sedoheptulose bisphosphate): -0.0816; Log2(fold change) Thiamine pyrophosphate (metabolite Thiamine pyrophosphate): 0.0000; Log2(fold changes) UDP-D-glucose (metabolite UDP-D-glucose, log2 fold change): 0.1178; Log2(fold changes) UDP-D-glucuronate (metabolite UDP-D-glucuronate, log2 fold change): 0.0275; Log2(fold changes) UDP-N-acetyl-glucosamine (metabolite UDP-N-acetyl-glucosamine, log2 fold change): -0.1255; Log2(fold changes) UDP (metabolite UDP, log2 fold change): -0.3330; Log2(fold changes) UMP (metabolite UMP, log2 fold change): -0.0965; Log2(fold changes) UTP (metabolite UTP, log2 fold change): 0.0000; Log2(fold changes) VD (metabolite VD, log2 fold change): 0.0000; Log2(fold changes) Xanthurenic acid (metabolite Xanthurenic acid, log2 fold change): 0.0000; Log2(fold changes) a-ketoglutarate (metabolite a-ketoglutarate, log2 fold change): -0.2716; Log2(fold changes) acetyl-CoA (metabolite acetyl-CoA, log2 fold change): 0.0000; Log2(fold changes) acetyl-aspartate (metabolite acetyl-aspartate, log2 fold change): -0.0302; Log2(fold changes) acetylphosphate (metabolite acetylphosphate, log2 fold change): 0.6335; Log2(fold changes) aconitate (metabolite aconitate, log2 fold change): -0.3057; Log2(fold changes) adenine (metabolite adenine, log2 fold change): 0.0000; Log2(fold changes) adenosine 5'-phosphosulfate (metabolite adenosine 5'-phosphosulfate, log2 fold change): -0.0782
